pIC50: −log10 of the molar value. Entries after “also recorded” stand apart in the source; their conditions may differ.
How the values were obtained:
[1] = tested on: CAL27 (head and neck cancer cell line); experiment: MTT anti-proliferative assay, CAL27; assay type: cell-based; details: Homo sapiens, CAL-27
Experimental: The anti-proliferative activity of Formula I compounds are studied on HepG2 cells using MTT assay. Briefly, the cells (2.5×10^4/ml) are incubated in triplicate in a 96-well plate in the presence or absence of different concentrations of compounds in a final volume of 0.2 ml up to 72 hours at 37° C. Thereafter, 20 μl MTT solution (5 mg/ml in PBS) is added to each well. After 2 hours of incubation at 37° C., 0.1 ml lysis buffer (20% SDS, 50% dimethyl-formamide) is added; incubation is continued overnight at 37° C.; and the optical density (OD) at 570 nm is measured by Tecan plate reader.
Additionally, Compound 1 is tested on a panel of six cell lines including Hep3B, PLC/PRF5, AGS (gastric cancer cell line), DU145 (prostrate cancer cell line), MDA MB231 (breast cancer cell line) and CAL27 (head and neck cancer cell line) cells.

phospho-STAT3 (Y705) = experiment: Western blot of constitutive phospho-STAT3 (Y705) in HepG2; assay type: cell-based, human
Experimental: FIG. 2 depicts the suppression of phospho-STAT3 by compound 1 (CIMO) in a dose dependent manner [A]. HepG2 cells (5×10^5/mL) are treated with the indicated concentrations of CIMO for 6 hours, after which whole-cell extracts are prepared and resolved on SDS-PAGE gel, electrotransferred onto nitrocellulose membrane, and probed for phospho-STAT3. The same blot is stripped and reprobed with STAT3 antibody to verify equal protein loading. […] HepG2 cells (5×10^5/mL) are treated with the indicated concentrations of AG490 for about 6 hours, after which Western Blotting is done as described for [A]. [C] depicts the suppression of phospho-STAT3 levels by Compound 1 (CIMO) in a time-dependent manner. HepG2 cells (5×10^5/mL) are treated with 10 μMol/L CIMO for the indicated times, after which Western blotting is done as described for [A]. [D] depicts that compound 1 (CIMO) has no effect on phospho-STAT3 (Ser-727) and STAT3 protein expression. HepG2 cells (5×10^5/mL) are treated with 10 μMol/L CIMO for the indicated times, after which Western Blotting is done as described for [A] and membrane is probed using antibodies against phospho-STAT3 (Ser-727) and STAT3. […] HepG2 cells (1×10^5/mL) are incubated with or without 10 μMol/L CIMO for about 6 hours and then analyzed for the intracellular distribution of STAT3 by immunocytochemistry. The same slides are counterstained for nuclei with Hoechst (50 ng/mL) for about 5 minutes and analyzed under an fluorescencemicroscope. […] HepG2 cells (5×10^5/mL) are treated with 10 μMol/L CIMO, after which whole-cell extracts are prepared, resolved in SDS-PAGE, electrotransferred onto nitrocellulose membrane, and probed with phospho-Src, phospho-JAK1 and phospho-JAK2 antibodies. The same blots are stripped and reprobed with Src, JAK1 and JAK2 antibodies to verify equal protein loading. [G] depicts the suppression of STAT3 DNA binding ability by Compound 1 (CIMO) in HepG2 cells. HepG2 cells are treated with 10 μMol/L CIMO for the indicated time, nuclear extracts are prepared, and 5 μg of the nuclear extract protein is used for ELISA-based DNA-binding assay.
CIMO is tested towards the inhibition of constitutive activation of STAT3 in HepG2 cells by Western Blotting via antibodies recognising phospho-STAT3 (Y705). For detection of phospho-proteins, CIMO treated whole-cell extracts are lysed in lysis buffer [20 mM Tris (pH 7.4), 250 mM NaCl, 2 mM Ethylenediaminetetraacetic acid (pH 8.0), 0.1% Triton-X-100, 0.01 mg/ml aprotinin, 0.005 mg/ml leupeptin, 0.4 mM phenylmethanesulfonylfluoride, and 4 mM NaVO4). Lysates are then spun at 14,000 rpm for about 10 minutes to remove insoluble material and resolved on SDS gel. After electrophoresis, the proteins are electrotransferred to a nitrocellulose membrane, blocked with 5% non-fat milk, and probed with various antibodies (1:1000) overnight at about 4° C. The blot is washed, exposed to HRP-conjugated secondary antibodies for about 1 hour, and finally examined by chemiluminescence (ECL; GE Healthcare, Little Chalfont, Buckinghamshire, UK).

caspase-3 and PARP = experiment: Western blot of procaspase-3 and PARP cleavage; assay type: cell-based, human; details: HepG2, 10 μMol/L CIMO, time dependent
Experimental: FIG. 4 depicts activation of caspase-3 and induction of apoptosis by Compound 1 (CIMO) [A]. HepG2 cells (5×10^5/mL) are treated with 10 μMol/L CIMO for the indicated times, whole-cell extracts are prepared, separated on SDS-PAGE, and subjected to Western Blotting against caspase-3 and PARP antibody. The same blot is stripped and reprobed with Beta actin antibody to show equal protein loading. [B] Tyrosine phosphatase inhibitor-sodium pervanadate reverses the inhibitory effect of Compound 1 (CIMO) on phospho-STAT3. HepG2 cells (5×10^5/mL) are treated with the indicated concentrations of sodium pervanadate and 10 μMol/L CIMO for about 4 hours, after which whole-cell extracts are prepared, resolved on SDS-PAGE gel, electrotransferred onto nitrocellulose membrane, and probed for phospho-STAT3 and STAT3. [C] illustrates the inhibitory activity of Compound 1 (CIMO) on phospho-STAT3 mediated by protein tyrosine phosphatase. […]
To detect STAT3-regulated proteins and PARP, cells (2×10^6/ml) are treated with CIMO for the indicated times as shown in respective FIGS. 3E, 3D and 4A. […] Whole-cell extract protein (30 μg) is resolved on SDS-PAGE, electrotransferred onto a nitrocellulose membrane, blotted with antibodies against survivin, Bcl-2, Bcl-xL, cyclin D1, Bak, Bid, ICAM-1, procaspase-3, and PARP and then detected by chemiluminescence (ECL; GE Healthcare, Little Chalfont, Buckinghamshire, UK).

COc1ccc(C2CNC(c3cn(Cc4ccc(-c5ccccc5C#N)cc4)c4ccccc34)OC23CCCCC3)cc1 (stereo not shown) [Compound 1]
pIC50 [1]: 4.57 | time of maximum inhibition of phospho-STAT3 (phospho-STAT3 (Y705); HepG2): 6 h | phospho-STAT3 levels versus DMSO control (phospho-STAT3 (Y705); HepG2, 4 μM CIMO): decreased phospho-STAT3 levels | protein levels of total STAT3 versus DMSO control (phospho-STAT3 (Y705); HepG2, 4 μM CIMO): not significantly altered | concentration of maximum inhibition of phospho-STAT3 (phospho-STAT3 (Y705); HepG2, 6 hours): 20 µM | concentration for comparable phospho-STAT3 effect versus AG490 (phospho-STAT3 (Y705); HepG2, CIMO compared to AG490): ten-fold lower concentration | levels of phospho-STAT3 (Y705) (phospho-STAT3 (Y705); HepG2, Western blot, dose and time course, listed as CIMO): substantially downregulated in a dose- and time-dependent manner; also recorded: completely inhibits | STAT3 protein expression (phospho-STAT3 (Y705); HepG2, same blots reprobed): remains unchanged | full length PARP / cleaved 85-kDa fragment (caspase-3 and PARP): decline of full length PARP with increase in cleaved 85-kDa fragment | procaspase-3 activation (caspase-3 and PARP): activation of procaspase-3

Source: patent US9604974B2, “Compounds as modulator of JAK-STAT pathway, methods and applications thereof” (UNIVERSITY OF MYSORE, priority 2015, dated 2017)
